Columns and labels:
Detroit 551 = assay: MTT assay, Detroit 551 normal human cells; assay type: cell-based; settings: Homo sapiens, Detroit 551; Table 6; MTT
How it was run: (§1)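 H460 and Detroit 551 cells exposed to test compounds for 48 h (vehicle control); growth measured by MTT reduction, 2 h MTT incubation, formazan dissolved in DMSO, absorbance at 570 nm.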

HL-60 = assay: MTT assay, HL-60 cells; assay type: cell-based; settings: Homo sapiens, Table 6, MTT
How it was run: (§2)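 Cells exposed to compounds for 48 h (other runs: indicated periods), then washed with PBS and given MTT for 2 h. Formazan dissolved in DMSO and read at 570 nm as a measure of cell growth.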

Hep3B = assay: MTT assay, Hep 3B cells; assay type: cell-based; settings: Homo sapiens, Table 6, MTT
How it was run: as §2

Colo205 = assay: MTT assay, Colo205 cells; assay type: cell-based; settings: Homo sapiens, COLO 205, Table 6
Description: (§3) MTT (3-(4,5-Dimethylthiazol-2-yl)-2,5-diphenyltetrazolium bromide) assays. HL-60, Hep 3B, H460, A498, Colo205 and Detroit 551 cells were treated with tested compounds for the indicated periods. After treatment, cells were washed once with PBS and incubated with MTT (Sigma, St. Louis, Mo., USA) for 2 h. The formazan precipitate was dissolved in 150 μL of DMSO, and the absorbance was measured with an ELISA reader at 570 nm.

H460 = assay: MTT assay, H460 cells; assay type: cell-based; settings: Homo sapiens, NCI-H460; Table 6; MTT
How it was run: as §1

A498 = assay: MTT assay, A498 cells; assay type: cell-based; settings: Homo sapiens, Table 6
Description: as §3

- IC50 (HL-60): 0.4 µM
- melting point: > 300 °C
- IC50 (Hep3B): > 50 µM
- IC50 (Colo205): > 50 µM
- IC50 (H460): > 50 µM
Structure (SMILES): COc1cc(O)cc(-c2cc(=O)c3cc4c(cc3[nH]2)OCO4)c1 [Compound 166, 2-(3-Hydroxy-5-methoxyphenyl)-6,7-methylenedioxyquinolin-4-one]
- IC50 (Detroit 551): > 50 µM
- IC50 (A498): > 50 µM
